Results from EP0374919A1, “Morphine derivative” (Chugai Seiyaku Kabushiki Kaisha, priority 1988, dated 1990).
Where two headings read alike, the source gives them in different places.

Columns and labels:
male mice (Slc: ddy) [1] = experiment: Analgesic examination by radiant heat-stimulation test (tail irradiation, pain threshold); type: in vivo; conditions: for analgesic effect (pain threshold): range 0.03 to 1.0 mg/kg
Method: Example 6 Analgesic Examination by Radiant Heat-Stimulation Test:
Each group had 7 animals. An hour after the injection, the analgesic effect of each compound was examined by radiant heat-stimulation test [refer to A.G. Hayes, M.J. Sheehan, M.B. Tyers; Brit. J. Pharmacol., 91, 111 - 115 (1987)]. Namely, the tail of each mouse was irradiated with intense light and the time required until the animal switched its tail was measured. The value thus measured was referred to as the pain threshold.

[2] = tested on: extirpated guinea pig ileum pieces; experiment: Transmural electric stimulation test on an extirpated guinea pig ileum piece (smooth muscle contraction); type: cell-based; conditions: for pD₂: transmural electric stimulation 0.1 Hz, smooth muscle contraction
Method: Example 7 Transmural Electric Stimulation Test on an Extirpated Guinea Pig Ileum Piece:
The effects of the compounds were examined by applying transmural electric stimulation (0.1 Hz) to extirpated guinea pig ileum pieces while using the smooth muscle contraction as an indication [refer to H.K. Kopsterlitz, A.A. Waterfield; Annu. Rev. Pharmacol., 15, 29 - 47 (1975)].
The data shown in Table 1 were calculated according to a method reported by Arunlakshana and Schild [refer to 0. Arunlakashana, H.O. Schild; Brit. J. Pharmacol., 14, 48 - 58 (1959)]. Each value is expressed in mean ± standard deviation.

male mice (Slc: ddy) [3] = experiment: Analgesic effect examined by acetic acid-writhing test; type: in vivo; conditions: subcutaneous injection 30 minutes before 0.6% acetic acid i.p., writhings counted within 10 minutes, 7 mice per group
Method: Example 8 Analgesic Effect Examined by Acetic Acid- Writhing Test:
Male mice (Slc: ddy) aged 5 weeks were divided into groups each having 7 animals. […] After 30 minutes, 0.6% acetic acid was intraperitoneally administered to each mouse in a dose of 0.1 ml/10 g. 10 minutes thereafter, the writhings thus induced were counted within 10 minutes. […] The acetic acid-writhing test was conducted according to a method reported by R. Koster, M. Anderson and E.I. Debeer [refer to Fed. Proc., 18, 412 (1959)].

[4] = subcutaneous, an hour after the injection, p < 0.01 in Dunnett's t-test
[5] = subcutaneous, an hour after the injection
[6] = antagonism by naloxone, method of Arunlakshana and Schild, mean ± standard deviation

SMILES | dose with statistically significant analgesic effect (male mice (Slc: ddy) [1]; [4]) [mg/kg] | analgesic effect (pain threshold) (male mice (Slc: ddy) [1]; [5]) | pA₂ (naloxone) [2, 6] | pD₂ ([2]; mean ± standard deviation) | ED₅₀ (male mice (Slc: ddy) [3]) [mg/kg] | further results
CC(=O)Oc1ccc2c3c1O[C@H]1[C@H](SC(C)=O)C=C[C@H]4[C@@H](C2)N(CC2CC2)CC[C@@]341.Cl [Compound VII, 3-acetyl-6β-acetylthio-N-cyclopropylmethylnormorphine hydrochloride] | 1.0 | analgesic effect depending on dose | 7.80 ± 0.13 | 9.01 ± 0.16 | 0.062 | –
CC(=O)S[C@@H]1C=C[C@H]2[C@H]3Cc4ccc(O)c5c4[C@@]2(CCN3CC2CC2)[C@H]1O5 [Compound VI, 6β-acetylthio-N-cyclopropylmethylnormorphine] | 1.0 | analgesic effect depending on dose | 7.75 ± 0.12 | 8.38 ± 0.06 | – | –
CN1CC[C@]23c4c5ccc(O)c4O[C@H]2[C@@H](O)C=C[C@H]3[C@H]1C5.Cl [Morphine hydrochloride, reference compound] | – | – | – | – | – | dose with statistically significant analgesic effect (male mice (Slc: ddy) [1]; mouse, in vivo, sc): ≥ 3.2 mg/kg; pA₂ (naloxone) [2]: 8.45 ± 0.13
CC(C)=CCN1CCC2(C)c3cc(O)ccc3CC1C2C (stereo not shown) [Pentazocine, reference compound] | – | – | – | – | – | ED50 (male mice (Slc: ddy) [3]; Mus musculus, sc, read-out: ED₅₀): 0.869 mg/kg
CCC(=O)Oc1ccc2c3c1O[C@H]1[C@H](SC(=O)CC)C=C[C@H]4[C@@H](C2)N(CC2CC2)CC[C@@]341 [Compound IX, 3-propionyl-6β-propionylthio-cyclopropylmethylnormorphine] | – | – | – | – | 0.047 | –
